Results reported in patent US11470844B2, “Vespidae wasp repellent” (KINP CO., LTD, priority 2015, dated 2022).

Assays:
[1] = tested on: Vespa simillima xanthoptera; experiment: Grape juice attraction trap set outside; assay type: in vivo
Experimental: (§1) The inventors conducted the experiment at four places in Kagawa Prefecture Kinbuchi Forest Park. The experiment was conducted totally 4 times from Oct. 11 to Nov. 4, 2013, from Nov. 4 to Dec. 7, 2013, from Oct. 1 to Oct. 31, 2014, and from Oct. 31 to Dec. 9, 2014.
(§2) First, four 2 cm square holes were opened on the side of a 2 L capacity PET bottle, and 500 mL of grape juice was added thereto to prepare a control attraction trap to kill a Vespidae worker. As Test liquid example, 25 mL, 5 mL or 1 mL of 2-phenylethanol was added to the grape juice of the traps. […] Since all of the test sites were low mountainous and sloping areas and had many trees, each trap had to be suspended from the branch of live trees. As a result, the horizontal distances between a pair of control example trap and test liquid example trap could not be adjusted to the same, and the distance was from 1 m to 8.5 m. There were not only Vespidae worker but also male Vespidae among the killed Vespidae wasps in the attraction traps; however, the results of the control example and test liquid example were compared on the basis of the number of the killed Vespidae worker, since a Vespidae worker causes a stabbing accident and plays an important role in building a nest. In Table 8, “*” indicates the case where there is a significant difference at p<0.01 in the χ^2 test to which the correction of Yates is applied, and “**” indicates the case where there is a significant difference at p<0.001 in the same test. The result of the first experiment in 2013 is shown in Table 9, the result of the second experiment in 2013 is shown in Table 10, the result of the first experiment using 1% 2-phenylethanol in 2014 is shown in Table 11, the result of the second experiment in 2014 is shown in Table 12, the result of the first experiment using 0.1% 2-phenylethanol in 2014 is shown in Table 13, and the result of the second experiment in 2014 is shown in Table 14. In Tables 9 to 14, “*” indicates the case where there is a significant difference at p<0.05 in the t-test, “**” indicates the case where there is a significant difference at p<0.01 in the same test, and “***” indicates the case where there is a significant difference at p<0.001 in the same test.
(§3) In the first experiment and second experiment, the trap prepared by adding 25 mL of 2-phenylethanol to 500 mL of grape juice was used as the test liquid example of 5% 2-phenylethanol.
(§4) In the first experiment and second experiment, 10 traps prepared by adding 5 mL of 2-phenylethanol to 500 mL of grape juice and 10 traps prepared by adding 0.5 mL of 2-phenylethanol to 500 mL of grape juice were used respectively as the 2 kinds of test liquid examples of 1% 2-phenylethanol and 0.1% 2-phenylethanol to conduct the experiment.

[2] = tested on: Vespa mandarinia; experiment: Grape juice attraction trap set outside; assay type: in vivo
Experimental: as §1, §2, §3, §4

[3] = tested on: Vespa analis; experiment: Grape juice attraction trap set outside; assay type: in vivo
Experimental: as §1, §2, §3, §4

[4] = tested on: Vespa crabro flavofasciata; experiment: Grape juice attraction trap set outside; assay type: in vivo
Experimental: as §1, §2, §3, §4

[5] = tested on: Vespa ducalis; experiment: Grape juice attraction trap set outside; assay type: in vivo
Experimental: as §1, §2, §3, §4

[6] = tested on: P. jokahamae jokahamae Radoszkowski worker; experiment: Spray on worker collecting Zelkova sap; assay type: in vivo, Polistes jokahamae jokahamae Radoszkowski
Experimental: (§5) The experiment involving a worker group of Polistes jokahamae jokahamae Radoszkowski on the exterior wall of a nest found in the campus of Faculty of Agriculture, Kochi University, located on 200 Otsu, Monobe, Nankoku City, Kochi Prefecture, was conducted on Jul. 13, 2015, and the experiment involving a worker of P. jokahamae jokahamae Radoszkowski which collected sap bled from sucking mark by adult Cryptotympana facialis of Zelkova tree stem planted in a private house in Fuseishi-cho, Takamatsu City, Kagawa Prefecture was conducted on July 19 to 22, 2015. In addition, the experiment involving a worker group of P. chinensis antennalis Pe'rez on the exterior wall of a nest found on a branch of a cheesewood planted at a bank of Noda pond located at Fuseishi-cho, Takamatsu City, Kagawa Prefecture was conducted on Jul. 30, 2015.
(§6) The experiment was conducted in accordance with the above-described Example 1(1) involving a Vespa mandarinia worker, distilled water as a control example spray and benzyl alcohol as a test liquid example spray were sequentially sprayed on a test object group or a test object worker by using a sprayer, and the behavior from immediately after spraying up to 1 minute later was respectively recorded.

[7] = tested on: Polistes jokahamae jokahamae Radoszkowski worker group; experiment: Spray on worker group on nest surface; assay type: in vivo
Experimental: as §5, §6

[8] = 0.1% 2-phenylethanol trap, first experiment 2014, 10 traps
[9] = 0.1% 2-phenylethanol trap, second experiment 2014, 10 traps
[10] = 1% 2-phenylethanol trap, first experiment 2014, 10 traps
[11] = 1% 2-phenylethanol trap, second experiment 2014, 10 traps
[12] = 5% 2-phenylethanol trap, first experiment 2013, 18 traps
[13] = 5% 2-phenylethanol trap, second experiment 2013, 18 traps

OCCc1ccccc1 [2-Phenylethanol, 2-phenylethanol]
Total number of killed worker (Average ± SD), Vespa simillima xanthoptera [1, 8]: (0.10 ± 0.32) | Total number of killed worker, Vespa simillima xanthoptera [1, 8]: 1 | Total number of killed worker (Average ± SD), Vespa simillima xanthoptera [1, 9]: (0.00 ± 0.00) | Total number of killed worker, Vespa simillima xanthoptera [1, 9]: 0 | Total number of killed worker (Average ± SD), Vespa simillima xanthoptera [1, 10]: (0.00 ± 0.00) | Total number of killed worker, Vespa simillima xanthoptera [1, 10]: 0 | Total number of killed worker (Average ± SD), Vespa simillima xanthoptera [1, 11]: (0.00 ± 0.00) | Total number of killed worker, Vespa simillima xanthoptera [1, 11]: 0 | Total number of killed worker (Average ± SD), Vespa simillima xanthoptera [1, 12]: (0.00 ± 0.00) | Total number of killed worker, Vespa simillima xanthoptera [1, 12]: 0 | Total number of killed worker (Average ± SD), Vespa simillima xanthoptera [1, 13]: (0.00 ± 0.00) | Total number of killed worker, Vespa simillima xanthoptera [1, 13]: 0 | Total number of killed worker (Average ± SD), Vespa mandarinia [2, 8]: (3.60 ± 5.58) | Total number of killed worker, Vespa mandarinia [2, 8]: 36 | Total number of killed worker (Average ± SD), Vespa mandarinia [2, 9]: (0.30 ± 0.95) | Total number of killed worker, Vespa mandarinia [2, 9]: 3 | Total number of killed worker (Average ± SD), Vespa mandarinia [2, 10]: (0.00 ± 0.00) | Total number of killed worker, Vespa mandarinia [2, 10]: 0 | Total number of killed worker (Average ± SD), Vespa mandarinia [2, 11]: (0.00 ± 0.00) | Total number of killed worker, Vespa mandarinia [2, 11]: 0 | Total number of killed worker (Average ± SD), Vespa mandarinia [2, 12]: (0.00 ± 0.00) | Total number of killed worker, Vespa mandarinia [2, 12]: 0 | Total number of killed worker (Average ± SD), Vespa mandarinia [2, 13]: (0.00 ± 0.00) | Total number of killed worker, Vespa mandarinia [2, 13]: 0 | Total number of killed worker (Average ± SD), Vespa analis [3, 8]: (0.60 ± 0.70) | Total number of killed worker, Vespa analis [3, 8]: 6 | Total number of killed worker (Average ± SD), Vespa analis [3, 9]: (0.00 ± 0.00) | Total number of killed worker, Vespa analis [3, 9]: 0 | Total number of killed worker (Average ± SD), Vespa analis [3, 10]: (0.00 ± 0.00) | Total number of killed worker, Vespa analis [3, 10]: 0 | Total number of killed worker (Average ± SD), Vespa analis [3, 11]: (0.00 ± 0.00) | Total number of killed worker, Vespa analis [3, 11]: 0 | Total number of killed worker (Average ± SD), Vespa analis [3, 12]: (0.00 ± 0.00) | Total number of killed worker, Vespa analis [3, 12]: 0 | Total number of killed worker (Average ± SD), Vespa analis [3, 13]: (0.00 ± 0.00) | Total number of killed worker, Vespa analis [3, 13]: 0 | Total number of killed worker (Average ± SD), Vespa crabro flavofasciata [4, 8]: (1.50 ± 1.27) | Total number of killed worker, Vespa crabro flavofasciata [4, 8]: 15 | Total number of killed worker (Average ± SD), Vespa crabro flavofasciata [4, 9]: (0.00 ± 0.00) | Total number of killed worker, Vespa crabro flavofasciata [4, 9]: 0 | Total number of killed worker (Average ± SD), Vespa crabro flavofasciata [4, 10]: (0.00 ± 0.00) | Total number of killed worker, Vespa crabro flavofasciata [4, 10]: 0 | Total number of killed worker (Average ± SD), Vespa crabro flavofasciata [4, 11]: (0.00 ± 0.00) | Total number of killed worker, Vespa crabro flavofasciata [4, 11]: 0 | Total number of killed worker (Average ± SD), Vespa crabro flavofasciata [4, 12]: (0.00 ± 0.00) | Total number of killed worker, Vespa crabro flavofasciata [4, 12]: 0 | Total number of killed worker (Average ± SD), Vespa crabro flavofasciata [4, 13]: (0.00 ± 0.00) | Total number of killed worker, Vespa crabro flavofasciata [4, 13]: 0 | Total number of killed worker (Average ± SD), Vespa ducalis [5, 8]: (0.40 ± 0.70) | Total number of killed worker, Vespa ducalis [5, 8]: 4 | Total number of killed worker (Average ± SD), Vespa ducalis [5, 9]: (0.00 ± 0.00) | Total number of killed worker, Vespa ducalis [5, 9]: 0 | Total number of killed worker (Average ± SD), Vespa ducalis [5, 10]: (0.00 ± 0.00) | Total number of killed worker, Vespa ducalis [5, 10]: 0 | Total number of killed worker (Average ± SD), Vespa ducalis [5, 11]: (0.00 ± 0.00) | Total number of killed worker, Vespa ducalis [5, 11]: 0 | Total number of killed worker (Average ± SD), Vespa ducalis [5, 12]: (0.00 ± 0.00) | Total number of killed worker, Vespa ducalis [5, 12]: 0 | Total number of killed worker (Average ± SD), Vespa ducalis [5, 13]: (0.00 ± 0.00) | Total number of killed worker, Vespa ducalis [5, 13]: 0

OCc1ccccc1 [Benzyl alcohol, benzyl alcohol]
Effective (number of worker) ([6]; 10 workers collecting sap): 10 | No response (number of worker) ([6]; 10 workers collecting sap): 0 | time of flapping behavior before the worker flew away ([6]; 10 workers, or without flapping): ≤ 1 s | Number of P. jokahamae jokahamae Radoszkowski on nest surface ([7]; 10:02, 1 minute after spraying benzyl alcohol once, 11 workers before): 0 | time within which all workers flew away from the nest after spraying ([7]; group of 11 workers): ≤ 10 s
